Test results: patent EP1247803A2, “Indolinone compounds suitable for modulation of protein kinases” (Sugen, Inc., priority 1996, dated 1998)

How the values were obtained:
MET = MET biochemical kinase assay; design: species or system human; concentration or dose not given beside the values
Outline: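 Plates coated with anti-rabbit Fc bind a rabbit anti-MET antibody that captures receptor from cell lysates; unbound protein is washed off before compound and ATP-containing kinase buffer go in.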

EGFR = biological target: T1, EGFR (Homo sapiens, UniProt P00533); assay: EGFR ELISA assay (in vitro kinase activity, EGFR captured from A431 cell lysate); type: biochemical; design: concentration or dose not given beside the values
T1 construct: Add 7 ug A431 cell lysate per well (EGFR source); endogenous in cells; host or cells: A431
T1 sequence (P00533 25-1210): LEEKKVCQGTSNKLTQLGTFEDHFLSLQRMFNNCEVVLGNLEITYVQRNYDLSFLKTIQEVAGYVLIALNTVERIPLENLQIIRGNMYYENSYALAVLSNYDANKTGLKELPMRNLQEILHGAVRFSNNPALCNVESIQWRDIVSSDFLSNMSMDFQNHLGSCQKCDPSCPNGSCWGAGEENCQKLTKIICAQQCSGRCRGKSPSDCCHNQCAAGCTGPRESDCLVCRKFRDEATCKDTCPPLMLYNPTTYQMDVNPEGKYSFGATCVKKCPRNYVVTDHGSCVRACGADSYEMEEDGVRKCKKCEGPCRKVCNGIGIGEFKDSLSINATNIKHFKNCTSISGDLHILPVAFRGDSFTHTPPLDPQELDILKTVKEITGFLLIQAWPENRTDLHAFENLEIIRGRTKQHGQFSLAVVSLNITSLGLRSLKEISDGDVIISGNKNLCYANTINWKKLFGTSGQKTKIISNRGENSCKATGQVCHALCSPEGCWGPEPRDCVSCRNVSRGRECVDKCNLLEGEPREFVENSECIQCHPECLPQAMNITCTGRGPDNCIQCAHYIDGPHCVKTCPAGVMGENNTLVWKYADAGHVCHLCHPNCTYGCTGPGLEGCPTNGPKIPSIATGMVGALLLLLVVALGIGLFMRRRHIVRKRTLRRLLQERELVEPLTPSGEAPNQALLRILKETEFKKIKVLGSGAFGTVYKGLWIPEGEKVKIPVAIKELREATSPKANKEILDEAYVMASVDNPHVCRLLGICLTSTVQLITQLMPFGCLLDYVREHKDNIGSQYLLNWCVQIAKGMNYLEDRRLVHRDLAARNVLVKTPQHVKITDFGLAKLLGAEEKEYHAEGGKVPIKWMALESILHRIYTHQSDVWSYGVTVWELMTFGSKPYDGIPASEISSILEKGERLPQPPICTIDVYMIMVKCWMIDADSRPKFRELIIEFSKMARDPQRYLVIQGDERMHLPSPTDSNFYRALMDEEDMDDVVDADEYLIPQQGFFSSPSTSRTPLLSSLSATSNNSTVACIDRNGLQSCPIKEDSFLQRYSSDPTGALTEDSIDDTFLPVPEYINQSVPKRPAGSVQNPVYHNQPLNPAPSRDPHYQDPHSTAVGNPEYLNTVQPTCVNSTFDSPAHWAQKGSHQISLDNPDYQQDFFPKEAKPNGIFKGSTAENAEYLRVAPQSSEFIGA
Outline: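 EGFR from A431 lysate was captured on anti-EGFR antibody-coated plates and preincubated with compounds for 30 min. Autophosphorylation ran 5 min with 3 uM ATP and 5 mM MnCl2 (final), stopped with 20 mM EDTA. Phosphotyrosine was detected by anti-pTyr ELISA with ABTS/H2O2, read at 410 nm.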

Structure (SMILES)	Met Kinase % Inhibition (MET)	Biochem EGFR %Inhibition (EGFR)
CNS(=O)(=O)c1ccc2c(c1)C(=CC1CC(OC)OC1OC)C(=O)N2 (centres unmarked) [10730/D10]	18.5%	16.7%
CNS(=O)(=O)c1ccc2c(c1)C(=Cc1cc(C)c(C)o1)C(=O)N2 [10730/D11]	9.7%	2.0%
COc1ccc(C=C2C(=O)Nc3ccc(S(=O)(=O)Nc4ccc(C(F)(F)F)cc4)cc32)c(OC)c1OC [10730/E02]	18.8%	17.7%
COc1cc(OC)c(OC)cc1C=C1C(=O)Nc2ccc(S(=O)(=O)Nc3ccc(C(F)(F)F)cc3)cc21 [10730/E03]	53.3%	65.3%
COc1cc(C=C2C(=O)Nc3ccc(S(=O)(=O)Nc4ccc(C(F)(F)F)cc4)cc32)cc(OC)c1OC [10730/E04]	35.2%	13.5%
CC(=O)n1cc(C=C2C(=O)Nc3ccc(S(=O)(=O)Nc4ccc(C(F)(F)F)cc4)cc32)c2ccccc21 [10730/E05]	49.0%	15.8%
O=C1Nc2ccc(S(=O)(=O)Nc3ccc(C(F)(F)F)cc3)cc2C1=Cc1coc2ccc(Cl)cc2c1=O [10730/E06]	52.8%	1.5%
O=C1Nc2ccc(S(=O)(=O)Nc3ccc(C(F)(F)F)cc3)cc2C1=Cc1ccc(-c2ccccc2Cl)o1 [10730/E07]	37.1%	18.8%
O=C1Nc2ccc(S(=O)(=O)Nc3ccc(C(F)(F)F)cc3)cc2C1=Cc1cc2ccccc2nc1Cl [10730/E08]	40.3%	6.2%
O=C1Nc2ccc(S(=O)(=O)Nc3ccc(C(F)(F)F)cc3)cc2C1=Cc1coc2c(Br)cc(Br)cc2c1=O [10730/E09]	33.9%	21.7%
COC1CC(C=C2C(=O)Nc3ccc(S(=O)(=O)Nc4ccc(C(F)(F)F)cc4)cc32)C(OC)O1 (centres unmarked) [10730/E10]	63.6%	9.3%
Cc1cc(C=C2C(=O)Nc3ccc(S(=O)(=O)Nc4ccc(C(F)(F)F)cc4)cc32)oc1C [10730/E11]	77.2%	19.1%
COc1ccc(C=C2C(=O)Nc3ccc(S(=O)(=O)N4CCOCC4)cc32)c(OC)c1OC [10730/F02]	-6.2%	2.9%
COc1cc(OC)c(OC)cc1C=C1C(=O)Nc2ccc(S(=O)(=O)N3CCOCC3)cc21 [10730/F03]	-0.6%	10.4%
COc1cc(C=C2C(=O)Nc3ccc(S(=O)(=O)N4CCOCC4)cc32)cc(OC)c1OC [10730/F04]	36.0%	-4.8%
CC(=O)n1cc(C=C2C(=O)Nc3ccc(S(=O)(=O)N4CCOCC4)cc32)c2ccccc21 [10730/F05]	23.5%	-16.3%
O=C1Nc2ccc(S(=O)(=O)N3CCOCC3)cc2C1=Cc1coc2ccc(Cl)cc2c1=O [10730/F06]	56.5%	-0.6%
O=C1Nc2ccc(S(=O)(=O)N3CCOCC3)cc2C1=Cc1ccc(-c2ccccc2Cl)o1 [10730/F07]	60.7%	27.3%
O=C1Nc2ccc(S(=O)(=O)N3CCOCC3)cc2C1=Cc1cc2ccccc2nc1Cl [10730/F08]	46.4%	0.8%
